Where “and” joins values, the source holds several entries; their conditions need not be identical. Identical values can stand only once. Like-named read-outs stand apart in the source and are kept apart here.
How the values were obtained:
[1] = LogD measurement, shake-flask octanol/PBS pH 7.4; type: physicochemical; conditions: for D: octanol/PBS pH 7.4, single injections 1-3; for LogD, pH 7.4: single injections 1-3
Experimental: Incubations were carried out in Eppendorf-type polypropylene microtubes in triplicates. A 2.5 μL aliquot of 20 mM DMSO stock of a test compound was added into the previously mutually saturated mixture containing 500 μL of PBS (pH 7.4) and 500 μL of octanol. The solution was allowed to mix in a rotator for 1 hour at 30 rpm. Phase separation was assured by centrifugation for 2 min at 6000 rpm. The octanol phase was diluted 100-fold with 40% acetonitrile, and the aqueous phase (PBS buffer) was diluted 10-fold. The samples (both phases) were analyzed using an HPLC system coupled with a tandem mass spectrometer. […] Calculations of the partition ratios were carried out using the equation below. D=do.So/dp.Sp where:
So–peak area of the analyte in octanol phase
SP–peak area of the analyte in PBS buffer
do–dilution coefficient for octanol phase

GSH reactivity assay = type: physicochemical; conditions: for Average Area Ratio Normalized: with GSH divided by without GSH; for remaining at 1.5 h, 20 μM: pH 7.4
Experimental: Test compounds (20 μM, final organic solvent concentration 10%) were incubated with 1 mM GSH in phosphate buffer (100 mM), pH 7.4 at 37°C, shaking at 300 rpm. In the control reactions (“without GSH”), the GSH was substituted with phosphate buffer. Five time points over 1.5 h were analyzed (0, 0.33, 0.66, 1 and 1.5 h). The reactions were stopped by adding 50 μL aliquots of the reaction mixture to 9 volumes of methanol: water: formic acid (10:10:0.04) with internal standard (IS). Samples were analyzed using HPLC system coupled with a tandem mass spectrometer. Average (triplicate) area ratios were calculated. GSH reactivity was calculated taking into account the possible instability of the compound during incubation. All calculations were performed using normalized data obtained by dividing the average area ratio of the test compound incubated with GSH by the average area ratio of the test compound incubated without GSH. Natural logarithms of the results were fitted to linear regression, and half-life (t1/2) was calculated as: t1/2=ln2/-slope

SUM149 = experiment: MTT cytotoxicity assay, SUM149; type: cell-based; conditions: SUM149, 72 h
Experimental: (§1) All cell lines were obtained from the American Type Culture Collection (ATCC) and cultured in the specified medium supplemented with 10% fetal bovine serum, 100 IU/mL penicillin, and 100 μg/mL streptomycin at 37°C in a humidified 5% CO2/95% air incubator. Synthesis of new compounds is described in S1 File, and >95% purity of RA475, Up284 and its analogs were confirmed by NMR and MS. To assess drug cytotoxicity, cells were seeded at 2,500 cells/well (10,000 cells/well for MM lines) in 100 μL medium in 96-well plate as triplicates and after 24 h treated with compounds for a further 72 h. To assess cytotoxicity, the cells were incubated for 2 h at 37°C according to the manufacturer’s protocol with the Thiazolyl Blue Tetrazolium Bromide (20 μL/well of 5 mg/mL stock solution in water) (Sigma, M5655) and A570 measured using a Benchmark Plus microplate spectrophotometer (BIO-RAD). IC50 was estimated using Graphpad Prism 7 software.

Hep3B = experiment: MTT cytotoxicity assay, Hep3B; type: cell-based; conditions: Homo sapiens, 72 h
Experimental: as §1

HCC1395 = experiment: MTT cytotoxicity assay, HCC1395; type: cell-based; conditions: Homo sapiens, HCC1395, 72 h
Experimental: as §1

PEO23 = experiment: MTT cytotoxicity assay, PEO23; type: cell-based; conditions: PEO23, 72 h
Experimental: as §1

4T1 = experiment: MTT cytotoxicity assay, 4T1; type: cell-based; conditions: Mus musculus, 4T1, 72 h
Experimental: as §1

[2] = 0 h, 1 mM GSH, 20 μM compound, pH 7.4, 37°C
[3] = 1 mM GSH in phosphate buffer, 1.5 h, read-out: % Remaining with GSH, normalized
[4] = 1 mM GSH in phosphate buffer, 1 mM GSH, pH 7.4, 37°C, read-out: t1/2 with GSH, normalized (converted)
[5] = phosphate buffer, pH 7.4, 37°C, read-out: t1/2 w/o GSH
[6] = phosphate buffer, 1.5 h, read-out: % Remaining w/o GSH

Row | SMILES | D [1] | LogD, pH 7.4 [1] | time within which compound reacted with GSH (GSH reactivity assay) | Average Area Ratio with GSH (GSH reactivity assay; [2]) | Average Area Ratio without GSH (GSH reactivity assay; 0 h, phosphate buffer) | Average Area Ratio Normalized (GSH reactivity assay; 0 h) | remaining at 1.5 h, 20 μM (GSH reactivity assay; [3]) | half-life at 20 μM (GSH reactivity assay; [4]) | Average Area Ratio with GSH (GSH reactivity assay; 0.33 h, 1 mM GSH) | Average Area Ratio without GSH (GSH reactivity assay; 0.33 h, phosphate buffer) | Average Area Ratio Normalized (GSH reactivity assay; 0.33 h) | Average Area Ratio with GSH (GSH reactivity assay; 0.66 h, 1 mM GSH) | Average Area Ratio without GSH (GSH reactivity assay; 0.66 h, phosphate buffer) | Average Area Ratio Normalized (GSH reactivity assay; 0.66 h) | Average Area Ratio with GSH (GSH reactivity assay; 1 h, 1 mM GSH) | Average Area Ratio without GSH (GSH reactivity assay; 1 h, phosphate buffer) | Average Area Ratio Normalized (GSH reactivity assay; 1 h) | Average Area Ratio with GSH (GSH reactivity assay; 1.5 h, 1 mM GSH) | Average Area Ratio without GSH (GSH reactivity assay; 1.5 h, phosphate buffer) | Average Area Ratio Normalized (GSH reactivity assay; 1.5 h) | further results
1 | Cl.Cl.N#Cc1ccc(/C=C2/C(=O)/C(=C/c3ccc(C#N)cc3)C23CCN(C(=N)N)CC3)cc1 [RA475, 1,3-bis((E)-4-cyanobenzylidene)-2-oxo-7-azaspiro[3.5]nonane-7-carboximidamide dihydrochloride] | 3.84E+01 and 4.27E+01 and 3.16E+01 | 1.631 and 1.5 | ≤ 30 min | 1.00E+02 | 1.00E+02 | 9.10E+01 | 8% | 12.2 min | 2.00E+01 | 9.44E+01 | 1.93E+01 | 1.02E+01 | 9.60E+01 | 9.62E+00 | 8.18E+00 | 9.22E+01 | 8.07E+00 | 7.92E+00 | 9.03E+01 | 7.98E+00 | logD ([1]; pH 7.4, mean of three injections): 1.58; logD ([1]; pH 7.4, single injections 1-3): 1.58; half-life at 20 μM (GSH reactivity assay; [5]): > 360 min; remaining at 1.5 h, 20 μM (GSH reactivity assay; [6]): 90%; IC50 (SUM149): 100 nM; IC50 (Hep3B): 997 nM; IC50 (HCC1395): 464 nM; IC50 (PEO23): 297 nM; IC50 (4T1): 261 nM
2 | N#Cc1ccc(/C=C2/C(=O)/C(=C/c3ccc(C#N)cc3)C23CCNCC3)cc1 [Up284, reference compound] | 1.15E+02 and 1.32E+02 and 1.44E+02 | 2.158 | ≤ 30 min | 1.00E+02 | 1.00E+02 | 8.68E+01 | 10% | 12.2 min | 1.76E+01 | 1.03E+02 | 1.48E+01 | 1.18E+01 | 1.13E+02 | 9.11E+00 | 1.20E+01 | 1.18E+02 | 8.78E+00 | 1.30E+01 | 1.18E+02 | 9.58E+00 | logD ([1]; n-octanol/PBS, pH 7.4, mean of three injections): 2.12; logD ([1]; n-octanol/PBS, pH 7.4, single injections 1-3): 2.06; half-life at 20 μM (GSH reactivity assay; [5]): > 360 min; remaining at 1.5 h, 20 μM (GSH reactivity assay; [6]): 118%; IC50 (SUM149): 90 nM; IC50 (Hep3B): 160 nM; IC50 (HCC1395; MTT, read-out: IC50): 120 nM; IC50 (PEO23): 112 nM; IC50 (4T1): 120 nM
